Test results reported in PubChem BioAssay (NCI).
Where “and” joins values, the source holds several entries; their conditions need not be identical. Equal entries are not always repeated.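 Grown in 96-well plates, cells were treated for 48 hours with each compound at five concentrations. Insufficient inhibition: endpoint recorded as highest concentration tested. GI50 = concentration required for 50% inhibition of growth. TGI marks complete inhibition of growth.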

Assays:
Experiment in all cases: inhibition of tumour cell growth, NCI panel, 48 h
CCRF-CEM leukemia = test system: CCRF-CEM leukemia
NCI-H460 lung = test system: NCI-H460 lung
LOX IMVI melanoma = test system: LOX IMVI melanoma
EKVX NSCLC = test system: EKVX NSCLC
U251 CNS = test system: U251 CNS
HS 578T breast = test system: HS 578T breast
HCT-15 colon = test system: HCT-15 colon
K-562 leukemia = test system: K-562 leukemia
NCI-H522 lung = test system: NCI-H522 lung
ACHN renal = test system: ACHN renal

| Compound | TGI (CCRF-CEM leukemia) [µM] | TGI (NCI-H460 lung) [µM] | TGI (LOX IMVI melanoma) [µM] | TGI (EKVX NSCLC) [µM] | TGI (U251 CNS) [µM] | TGI (HS 578T breast) [µM] | TGI (HCT-15 colon) [µM] | TGI (K-562 leukemia) [µM] | TGI (NCI-H522 lung) [µM] | TGI (ACHN renal) [µM] | GI50 (CCRF-CEM leukemia) [µM] | GI50 (NCI-H460 lung) [µM] | GI50 (LOX IMVI melanoma) [µM] | GI50 (EKVX NSCLC) [µM] | GI50 (U251 CNS) | GI50 (HS 578T breast) [µM] | GI50 (HCT-15 colon) [µM] | GI50 (K-562 leukemia) [µM] | GI50 (NCI-H522 lung) [µM] | GI50 (ACHN renal) [µM] |
| --- | --- | --- | --- | --- | --- | --- | --- | --- | --- | --- | --- | --- | --- | --- | --- | --- | --- | --- | --- | --- |
| CCC(/C=C/c1ccccc1)=N\Nc1ccc(Cl)c(Cl)c1 | > 100 | > 100 | > 100 | > 100 | > 100 | > 100 | > 100 | > 100 | 46.1 | 76.9 | – | – | – | – | – | – | – | – | – | – |
| Cn1ccnc1C(=O)/C=C/c1ccc(CC(=O)Nc2ccc(C(F)(F)F)cc2)cc1 | > 16.7 | 9.42 | 4.37 | 8.49 | 3.93 | > 16.7 | > 16.7 | > 16.7 | 6.39 | 5.96 | 0.658 | 2.99 | 2.18 | 3.07 | 1.89 µM | 6.14 | 1.4 | 0.614 | 3.35 | 2.95 |
| CCCCN(CCCC)c1ccc(C(=NC(C)CCCN(CC)CC)c2ccc(N(C)C)cc2)cc1 (configuration not stated) | 3.87 | 1.64 | 1.46 | 2.95 | 1.58 | 2.05 | 1.56 | 0.549 | 1.56 | 1.89 | 1.22 | 0.842 | 0.775 | 1.05 | 0.81 µM | 0.884 | 0.767 | 0.153 | 0.706 | 0.935 |
| O=C(CN(/C=C/C(=O)C(F)(F)F)c1ccccc1)c1ccc(Cl)c(Cl)c1 | 29.2 | 44.9 | 31.8 | 28.8 | 28.1 | 49.6 | 28.2 | 37.6 | 25 | 27.9 | 11.2 | 17.5 | 16 | 13.5 | 14.8 µM | 14.8 | 14.6 | 15.7 | 11.1 | 14.7 |
| CCN1C(=O)N(CC)C2C1NN=c1s/c(=C\c3cc4ccccc4[nH]3)c(=O)n12 (configuration not stated) | > 100 | 14.8 | > 100 | > 100 | 17.4 | 9.1 | > 100 | > 100 | 1.02 | 20.3 | 0.0208 | 0.0331 | < 0.01 | 0.0453 | 0.0383 µM | < 0.0203 | 0.0324 | < 0.01 | < 0.0164 | < 0.0157 |
| OCC1OC(n2cnc3c(=S)nc[nH]c32)C(O)C1O (configuration not stated) | > 2500 | > 2500 | > 2500 | > 2500 | > 2500 | > 2500 | > 2500 | > 2500 | > 2500 | > 2500 | 3.35 | 7.72 | 0.705 | > 100 | 58.3 µM | 12.8 | 6.62 | 1.04 | 9.27 | 4.87 |
| CC(C)(C#N)c1cc(C(=O)Nc2cc(Nc3ncccc3-c3ncnc4nc[nH]c34)ccc2F)cc(C(F)(F)F)c1 | > 10 | > 3.27 | 2.41 | > 6.56 | > 10 | > 2.33 | > 2.22 | > 10 | > 6.56 | > 3.41 | – | 1.18 | 0.38 | – | – | 0.919 | – | 0.345 | – | 1.2 |
| CC(C)N1C(NNC(=O)c2cnccn2)=NS(=O)(=O)c2ccccc21 | 6.3 | > 100 | > 100 | > 100 | > 100 | > 100 | > 100 | > 100 | > 100 | > 100 | 1.33 | > 100 | > 100 | > 100 | > 100 µM | > 100 | > 100 | > 100 | > 100 | > 100 |
| Cc1ccc2c(c1)C(=O)c1c-2n(CCCBr)c(=O)c2cc([N+](=O)[O-])ccc12 | 46.4 | > 100 | > 100 | > 100 | > 100 | > 100 | > 100 | > 100 | 96.2 | > 100 | 5.29 | 6.43 | 17.9 | > 100 | 24.8 µM | > 100 | 97.8 | 32.1 | 12.2 | 23.3 |
| CSC1(SC2=NCCN2)SC2(NCCN2)S1 | 26.1 | 45.4 | 25.7 | 40.5 | 32.8 | 69.1 | 41.2 | 81.2 | 27.1 | 33.2 | – | – | – | – | – | – | – | – | – | – |
| Nc1n[nH]c2ccc([C@@H]3Nc4ccc5[nH]ncc5c4[C@H]4C5C=CC(C5)[C@@H]34)cc12 (some centres not stated) | > 55.6 | 11.4 | 11.8 | 43.2 | 22.2 | 21.2 | 13.5 | > 100 | 12.7 | 47.8 | 0.342 | 0.365 | 0.443 | 0.505 | 0.433 µM | 0.27 | 0.316 | 0.0992 | 0.173 | 0.562 |
| CN(C)CC1CCCCCC(CN(C)C)C1=O (configuration not stated) | 3.87 | 36.8 | 25 | 37.3 | 25.6 | > 64.3 | 4.26 | 7.07 | 0.392 | 2.64 | 1.38 | 18 | 7.68 | 12.5 | 11.1 µM | 21 | 1.24 | 1.44 | 0.145 | 1.07 |
| c1ccc(P(CCP(CCP(c2ccccc2)c2ccccc2)c2ccccc2)CCP(c2ccccc2)c2ccccc2)cc1 (configuration not stated) | > 10 | 3.12 | 2.84 | > 10 | > 10 | > 10 | > 10 | > 10 | 5.13 | > 10 | – | – | – | > 10 | > 10 µM and 1.04 µM | – | – | – | – | > 10 |
| O=C(CCCSc1nc(-c2ccccc2)cc(-c2ccc(Cl)cc2)n1)NO | 13 | 7.29 | 1.87 | 11.5 | 12.7 | 24 | 13.5 | 26.1 | 10.4 | 4.38 | 0.882 | 0.558 | 0.414 | 1.8 | 1.66 µM | 4.78 | 0.382 | 1.51 | 1.96 | 0.399 |
| COc1ccc2c(c1)C(C)Cc1c(Cl)nc(C)nc1N2C (configuration not stated) | > 100 | 15.4 | 23.9 | 30.7 | 15.9 | 64.4 | 8.05 | > 100 | 5.92 | > 100 | 3.17 | 3.09 | 3.12 | 3.01 | 3.15 µM | 3.98 | 1.33 | 0.713 | 0.763 | 5.61 |
| COc1cc2c3c(n(C)c(=O)c2cc1OC)-c1cc2c(cc1/C3=C\C(N)CN)OCO2 (configuration not stated) | 3.63 | 7.58 | 3.12 | 9.95 | 2.42 | 41.4 | 16.6 | > 71.5 | – | 2.82 | 0.333 | 1.5 | 1.05 | 2.1 | 0.371 µM | 4.2 | 2.16 | 3.74 | 0.394 | 0.73 |
